From DBAASP
Converted amounts (≈) assume the structure as drawn.

How the values were obtained:
Assay in all cases: ≥ marks a high value that may be exact or a test limit, other limits are often not marked, values filed in µg/mL are converted to µM
[1] = test system: Cryptococcus neoformans ATCC 28957
[2] = test system: Bacillus subtilis ATCC 23857
Trichoderma asperellum = test system: Trichoderma asperellum
[3] = test system: Escherichia coli ATCC 25922
Fusarium oxysporum = test system: Fusarium oxysporum
[4] = test system: Pseudomonas syringae pv. tabaci
Fusarium solani = test system: Fusarium solani
[5] = test system: Bacillus cereus ATCC 14579
Rhizoctonia solani = test system: Rhizoctonia solani
[6] = test system: Candida albicans ATCC 90028
[7] = test system: Staphylococcus aureus ATCC 25923
[8] = test system: Fusarium oxysporum f.sp. vasinfectum
[9] = test system: Xanthomonas campestris pv. citri
[10] = test system: Pectobacterium carotovorum
Ramulariopsis gossypii = test system: Ramulariopsis gossypii
[11] = test system: Aeromonas salmonicida RFAS1
[12] = test system: Vibrio harveyi ATCC 14126
[13] = test system: Edwardsiella tarda FP4130
[14] = test system: Vibrio alginolyticus KCCM 2928
[15] = test system: Streptococcus iniae FP5228
[16] = test system: Vibrio ordalii KCCM 41669
Candida krusei ATCC 6258 = test system: Candida krusei ATCC 6258
[17] = test system: Enterobacter cloacae ATCC 13047
[18] = test system: Staphylococcus aureus ATCC 29213
[19] = test system: Candida glabrata ATCC 90030
[20] = test system: Enterococcus faecalis ATCC 4028
[21] = test system: Pseudomonas aeruginosa ATCC 27853
[22] = test system: Staphylococcus epidermidis ATCC 12228
Escherichia coli O157 = test system: Escherichia coli O157
Vibrio cholerae O1 Inaba = test system: Vibrio cholerae O1 Inaba
[23] = test system: Salmonella enterica subsp. enterica serovar Typhimurium ATCC 13311
[24] = test system: Staphylococcus aureus ATCC 43300
[25] = test system: Enterococcus faecalis ATCC 29212
[26] = test system: Bacillus cereus ATCC 11778
[27] = test system: Shigella sonnei ATCC 11060
[28] = test system: Saccharomyces cerevisiae SZMC 0644
[29] = test system: Candida parapsilosis CBS 604
Candida krusei CBS 573 = test system: Candida krusei CBS 573
[30] = test system: Candida albicans ATCC 10231
[31] = test system: Staphylococcus aureus ATCC 6538P
[32] = test system: Escherichia coli K-12 594
[33] = test system: Staphylococcus aureus SR1550
[34] = test system: Klebsiella pneumoniae ATCC 13883
[35] = test system: Acinetobacter baumannii ATCC 19606
[36] = test system: Pseudomonas aeruginosa ATCC 47085

**Q.** Which results are given for CC[C@H](C)[C@H](NC(=O)[C@H](Cc1cnc[nH]1)NC(=O)CNC(=O)[C@H](Cc1ccccc1)NC(=O)[C@@H](N)Cc1ccccc1)C(=O)N[C@@H](Cc1c[nH]c2ccccc12)C(=O)N[C@@H](Cc1cnc[nH]1)C(=O)NCC(=O)N[C@@H](C)C(=O)N[C@@H](CCCN=C(N)N)C(=O)N[C@H](C(=O)N[C@@H](CC(C)C)C(=O)N[C@@H](Cc1ccccc1)C(=O)N[C@@H](CCCN=C(N)N)C(=O)N[C@@H](CC(=O)O)C(=O)N[C@H](C(=O)N[C@@H](Cc1ccccc1)C(=O)N[C@@H](C)C(N)=O)C(C)C)[C@@H](C)O [FFGHIWHGARTLFRDVFA]?
**A.** MIC [1]: ≥ 32 µM; MIC [2]: 3.33 µM (≈ 7.25 µg/mL); MIC (Trichoderma asperellum): 8 µM (≈ 17.4 µg/mL); MIC [3]: 8 µM (≈ 17.4 µg/mL); MIC (Fusarium oxysporum): 16 µM (≈ 34.8 µg/mL); MIC [4]: 4 µM (≈ 8.71 µg/mL); MIC (Fusarium solani): 8 µM (≈ 17.4 µg/mL); MIC [5]: ≥ 64 µM; MIC (Rhizoctonia solani): ≥ 32 µM; MIC [6]: ≥ 32 µM; MIC [7]: 8 µM (≈ 17.4 µg/mL); MIC [8]: 13.3 µM (≈ 29 µg/mL); MIC [9]: ≥ 32 µM; MIC [10]: ≥ 32 µM; MIC (Ramulariopsis gossypii): 16 µM (≈ 34.8 µg/mL)

**Q.** With CC[C@H](C)[C@H](NC(=O)[C@H](CC(N)=O)NC(=O)[C@H](CCCCN)NC(=O)[C@H](Cc1c[nH]c2ccccc12)NC(=O)CNC(=O)[C@H](CCC(=O)O)NC(=O)[C@H](CCCCN)NC(=O)[C@H](CC(C)C)NC(=O)[C@H](CCC(=O)O)NC(=O)[C@H](CCC(N)=O)NC(=O)[C@H](Cc1ccccc1)NC(=O)[C@@H](N)Cc1ccccc1)C(=O)N[C@@H](CCCCN)C(=O)N[C@@H](CCCCN)C(=O)N[C@@H](C)C(=O)O [FFQELKEGWKNIKKA] as the molecule, how does the MIC [11] read?
**A.** The MIC was 7.8 µM (≈ 14.6 µg/mL).

**Q.** What about the MIC [12] of the same molecule?
**A.** The MIC was at least 125 µM.

**Q.** What about the MIC [13] of the same molecule?
**A.** The MIC was at least 62.5 µM.

**Q.** And the MIC [14]?
**A.** The MIC was 7.8 µM (≈ 14.6 µg/mL).

**Q.** And the MIC [15]?
**A.** The MIC was 15.6 µM (≈ 29.1 µg/mL).

**Q.** And the MIC [16]?
**A.** Its MIC is 2 µM (≈ 3.73 µg/mL).

**Q.** Which MIC (Candida krusei ATCC 6258) does the source give for CC[C@H](C)[C@H](NC(=O)[C@H](CC(C)C)NC(=O)CNC(=O)[C@H](CCCCN)NC(=O)[C@@H](NC(=O)[C@H](CC(C)C)NC(=O)[C@H](CCCCN)NC(=O)[C@@H]1CCCN1C(=O)[C@@H](NC(=O)[C@H](CC(C)C)NC(=O)[C@H](CO)NC(=O)[C@H](Cc1ccccc1)NC(=O)[C@@H](N)Cc1ccccc1)[C@@H](C)CC)C(C)C)C(=O)N[C@@H](CO)C(=O)N[C@@H](C)C(=O)N[C@@H](Cc1ccccc1)C(=O)N[C@@H](CCCCN)C(N)=O [FFSLIPKLVKGLISAFK] here?
**A.** Its MIC is at least 37.5 µM.

**Q.** What about the MIC [17] of the same molecule?
**A.** The MIC was 18.8 µM (≈ 35.8 µg/mL).

**Q.** What about the MIC [3] of the same molecule?
**A.** The MIC was 4.69 µM (≈ 8.95 µg/mL).

**Q.** What about the MIC [18] of the same molecule?
**A.** The MIC was 2.34 µM (≈ 4.46 µg/mL).

**Q.** And the MIC [19]?
**A.** The MIC was 18.8 µM (≈ 35.8 µg/mL).

**Q.** And the MIC [20]?
**A.** Its MIC is 1.17 µM (≈ 2.23 µg/mL).

**Q.** And the MIC [6]?
**A.** The MIC was 9.38 µM (≈ 17.9 µg/mL).

**Q.** And the MIC [21]?
**A.** Its MIC is 9.38 µM (≈ 17.9 µg/mL).

**Q.** And the MIC [22]?
**A.** The MIC was 1.17 µM (≈ 2.23 µg/mL).

**Q.** Which results are given for CC(C)C[C@H](NC(=O)CNC(=O)[C@H](CCCN=C(N)N)NC(=O)[C@H](CS)NC(=O)[C@H](CC(=O)O)NC(=O)CNC(=O)CNC(=O)[C@H](CO)NC(=O)[C@@H](N)Cc1ccccc1)C(=O)N[C@@H](CCCN=C(N)N)C(=O)N[C@@H](CCCN=C(N)N)C(=O)N[C@@H](CCCN=C(N)N)C(=O)N[C@@H](CS)C(=O)N[C@@H](Cc1ccccc1)C(=O)N[C@@H](CS)C(=O)N[C@H](C(=O)N[C@@H](CCCN=C(N)N)C(N)=O)[C@@H](C)O [FSGGDCRGLRRRCFCTR]?
**A.** MIC (Escherichia coli O157): ≥ 229 µM; MIC [3]: > 251 µM; MIC (Vibrio cholerae O1 Inaba): ≥ 126 µM; MIC [23]: 31.4 µM (≈ 62.5 µg/mL); MIC [24]: > 251 µM; MIC [21]: > 251 µM; MIC [7]: > 251 µM; MIC [25]: 251 µM (≈ 500 µg/mL); MIC [26]: ≥ 251 µM; MIC [22]: 15.7 µM (≈ 31.2 µg/mL); MIC [27]: ≥ 126 µM

**Q.** NCCCC[C@@H]1NC(=O)[C@H](CCCCN)NC(=O)[C@H](Cc2cnc[nH]2)NC(=O)[C@H](CCCCN)NC(=O)[C@@H](NC(=O)[C@H](CC(N)=O)NC(=O)[C@@H](N)CC(N)=O)CSSC[C@@H](C(=O)O)NC(=O)CNC(=O)[C@H](CO)NC(=O)CNC1=O [NNCKHKKGSGC] was tested. Which MIC [28] did it give?
**A.** The MIC was at least 42.5 µM.

**Q.** And the MIC [29]?
**A.** Its MIC is at least 42.5 µM.

**Q.** What about the MIC (Candida krusei CBS 573) of the same molecule?
**A.** Its MIC is at least 42.5 µM.

**Q.** What about the MIC [30] of the same molecule?
**A.** Its MIC is 42.5 µM (≈ 49.9 µg/mL).

**Q.** Which results are given for CC(C)C[C@H](NC(=O)[C@H](CCCN=C(N)N)NC(=O)[C@H](CC(C)C)NC(=O)[C@H](CC(C)C)NC(=O)[C@H](CC(C)C)NC(=O)[C@H](CC(C)C)NC(=O)[C@H](CCCCN)NC(=O)[C@H](CC(C)C)NC(=O)[C@@H](N)CCCN=C(N)N)C(=O)N[C@@H](CCCCN)C(N)=O [RLKLLLLRLK]?
**A.** MIC [31]: 1.58 µM (≈ 2 µg/mL); MIC [32]: 15.8 µM (≈ 20 µg/mL); MIC [33]: 27.7 µM (≈ 35 µg/mL)

**Q.** How did the MIC [3] turn out when CC(=O)N[C@@H](CCCN=C(N)N)C(=O)N1CCC[C@H]1C(=O)N[C@@H](CC(=O)O)C(=O)N[C@@H](CCCCN)C(=O)N1CCC[C@H]1C(=O)N[C@@H](CCCN=C(N)N)C(=O)N1CCC[C@H]1C(=O)N[C@@H](Cc1ccc(O)cc1)C(=O)N[C@@H](CC(C)C)C(=O)N1CCC[C@H]1C(=O)N[C@@H](CCCN=C(N)N)C(=O)N1CCC[C@H]1C(=O)N[C@@H](CCCN=C(N)N)C(=O)N1CCC[C@H]1C(=O)N1CCC[C@H]1C(=O)N[C@@H](CCCN=C(N)N)C(=O)N1CCC[C@H]1C(=O)N[C@H](C(=O)N[C@@H](CCCN=C(N)N)C(N)=O)C(C)C [RPDKPRPYLPRPRPPRPVR] was run?
**A.** The MIC was 2.6 µM (≈ 6.22 µg/mL).

**Q.** What about the MIC [34] of the same molecule?
**A.** Its MIC is 2 µM (≈ 4.78 µg/mL).

**Q.** And the MIC [35]?
**A.** Its MIC is over 100 µM.

**Q.** And the MIC [36]?
**A.** The MIC was at least 100 µM.
